Test results taken from paper PMC9783573, “Introduction of a SiFA Moiety into the D-Glutamate Chain of DOTA-PP-F11N Results in Radiohybrid-Based CCK-2R-Targeted Compounds with Improved Pharmacokinetics In Vivo” (Pharmaceuticals, 2022).
Starred links: 1 amine or outer side, 2 acyl side, 3 side chain; linkers in the order of their positions; H or OH if unused. Non-standard residues stand in square brackets, D forms with d. Residues, ends and D or L forms follow the SMILES beside them. *: point of attachment. X1 = O=C(O)CN1CCN(CC(=O)O)CCN([C@H](CCC(=O)*)C(=O)O)CCN(CC(=O)O)CC1; Benzoyl(4-SiFtBu2) = CC(C)(C)[Si](F)(c1ccc(C(=O)*)cc1)C(C)(C)C; d(γGlu) = O=C(O)[C@@H](CCC(=O)[*:2])N[*:1]; Nle = CCCC[C@H](N)C(=O)O; dDap = NC[C@@H](N)C(=O)O

experiment: Lipophilicity, n-octanol/PBS (pH 7.4) distribution coefficient; format: physicochemical; details: 177Lu-labelled peptide; n-octanol/PBS pH 7.4; read-out: logD7.4
Description: Lipophilicity (depicted as octanol-phosphate-buffered saline solution (PBS, pH = 7.4) distribution coefficient, logD7.4) was determined via dissolving the ^177Lu-labelled peptide (approx. 1 MBq) in a mixture (1/1, v/v) of n-octanol and PBS. The suspension was vortexed in a reaction vial (1.5 mL) for 3 min at RT and the vial was centrifuged at 9000× […] for 5 min (Biofuge 15, Heraus Sepatech GmbH, Osterode, Germany). 200 μL aliquots of both layers were measured separately in a γ-counter (Perkin Elmer, Waltham, MA, USA). The experiment was repeated at least five times.

Row | SMILES | logD
1 | CCCC[C@H](NC(=O)[C@H](Cc1c[nH]c2ccccc12)NC(=O)CNC(=O)[C@H](Cc1ccc(O)cc1)NC(=O)[C@H](C)NC(=O)CC[C@@H](NC(=O)CC[C@@H](NC(=O)CC[C@@H](NC(=O)CC[C@@H](NC(=O)CC[C@@H](NC(=O)CC[C@@H](NC(=O)CC[C@@H](NC(=O)CC[C@@H](NC(=O)[C@@H](CNC(=O)c1ccc([Si](F)(C(C)(C)C)C(C)(C)C)cc1)NC(=O)CC[C@H](C(=O)O)N1CCN(CC(=O)O)CCN(CC(=O)O)CCN(CC(=O)O)CC1)C(=O)O)C(=O)O)C(=O)O)C(=O)O)C(=O)O)C(=O)O)C(=O)O)C(=O)O)C(=O)N[C@@H](CC(=O)O)C(=O)N[C@@H](Cc1ccccc1)C(N)=O [[nat/177Lu]Lu-(R)-DOTAGA-rhCCK-18, metal not drawn] | -2.16 ± 0.09
2 | CCCC[C@H](NC(=O)[C@H](Cc1c[nH]c2ccccc12)NC(=O)CNC(=O)[C@H](Cc1ccc(O)cc1)NC(=O)[C@H](C)NC(=O)[C@@H](CCC(=O)O)NC(=O)[C@@H](CCC(=O)O)NC(=O)[C@@H](CCC(=O)O)NC(=O)[C@@H](CCC(=O)O)NC(=O)[C@@H](CCC(=O)O)NC(=O)[C@@H](CCC(=O)O)NC(=O)[C@@H](CCC(=O)O)NC(=O)[C@@H](CNC(=O)c1ccc([Si](F)(C(C)(C)C)C(C)(C)C)cc1)NC(=O)CC[C@H](C(=O)O)N1CCN(CC(=O)O)CCN(CC(=O)O)CCN(CC(=O)O)CC1)C(=O)N[C@@H](CC(=O)O)C(=O)N[C@@H](Cc1ccccc1)C(N)=O [[nat/177Lu]Lu-(R)-DOTAGA-rhCCK-8, metal not drawn] (X1-[dDap](Benzoyl(4-SiFtBu2))[dE][dE][dE][dE][dE][dE][dE]AYGW[Nle]DF-NH2) | -2.19 ± 0.08
3 | CCCC[C@H](NC(=O)[C@H](Cc1c[nH]c2ccccc12)NC(=O)CNC(=O)[C@H](Cc1ccc(O)cc1)NC(=O)[C@H](C)NC(=O)[C@@H](CCC(=O)O)NC(=O)[C@@H](CCC(=O)O)NC(=O)[C@@H](CCC(=O)O)NC(=O)[C@@H](CNC(=O)c1ccc([Si](F)(C(C)(C)C)C(C)(C)C)cc1)NC(=O)[C@@H](CCC(=O)O)NC(=O)[C@@H](CCC(=O)O)NC(=O)[C@@H](CCC(=O)O)NC(=O)CC[C@H](C(=O)O)N1CCN(CC(=O)O)CCN(CC(=O)O)CCN(CC(=O)O)CC1)C(=O)N[C@@H](CC(=O)O)C(=O)N[C@@H](Cc1ccccc1)C(N)=O [[nat/177Lu]Lu-(R)-DOTAGA-rhCCK-4, metal not drawn] (X1-[dE][dE][dE][dDap](Benzoyl(4-SiFtBu2))[dE][dE][dE]AYGW[Nle]DF-NH2) | -2.19 ± 0.08
4 | CCCC[C@H](NC(=O)[C@H](Cc1c[nH]c2ccccc12)NC(=O)CNC(=O)[C@H](Cc1ccc(O)cc1)NC(=O)[C@H](C)NC(=O)CC[C@@H](NC(=O)CC[C@@H](NC(=O)CC[C@@H](NC(=O)CC[C@@H](NC(=O)CC[C@@H](NC(=O)[C@@H](CNC(=O)c1ccc([Si](F)(C(C)(C)C)C(C)(C)C)cc1)NC(=O)CC[C@@H](NC(=O)CC[C@H](C(=O)O)N1CCN(CC(=O)O)CCN(CC(=O)O)CCN(CC(=O)O)CC1)C(=O)O)C(=O)O)C(=O)O)C(=O)O)C(=O)O)C(=O)O)C(=O)N[C@@H](CC(=O)O)C(=O)N[C@@H](Cc1ccccc1)C(N)=O [[nat/177Lu]Lu-(R)-DOTAGA-rhCCK-15, metal not drawn] ({X1-d(γGlu)}-[dDap](Benzoyl(4-SiFtBu2))[d(γGlu)][d(γGlu)][d(γGlu)][d(γGlu)][d(γGlu)]AYGW[Nle]DF-NH2) | -2.5 ± 0.02
5 | CCCC[C@H](NC(=O)[C@H](Cc1c[nH]c2ccccc12)NC(=O)CNC(=O)[C@H](Cc1ccc(O)cc1)NC(=O)[C@H](C)NC(=O)CC[C@@H](NC(=O)CC[C@@H](NC(=O)[C@@H](CNC(=O)c1ccc([Si](F)(C(C)(C)C)C(C)(C)C)cc1)NC(=O)CC[C@@H](NC(=O)CC[C@@H](NC(=O)CC[C@@H](NC(=O)CC[C@@H](NC(=O)CC[C@H](C(=O)O)N1CCN(CC(=O)O)CCN(CC(=O)O)CCN(CC(=O)O)CC1)C(=O)O)C(=O)O)C(=O)O)C(=O)O)C(=O)O)C(=O)O)C(=O)N[C@@H](CC(=O)O)C(=O)N[C@@H](Cc1ccccc1)C(N)=O [[nat/177Lu]Lu-(R)-DOTAGA-rhCCK-12, metal not drawn] ({X1-d(γGlu)-d(γGlu)-d(γGlu)-d(γGlu)}-[dDap](Benzoyl(4-SiFtBu2))[d(γGlu)][d(γGlu)]AYGW[Nle]DF-NH2) | -2.34 ± 0.05
6 | CCCC[C@H](NC(=O)[C@H](Cc1c[nH]c2ccccc12)NC(=O)CNC(=O)[C@H](Cc1ccc(O)cc1)NC(=O)[C@H](C)NC(=O)[C@@H](CCC(=O)O)NC(=O)[C@@H](CCC(=O)O)NC(=O)[C@@H](CCC(=O)O)NC(=O)[C@@H](CCC(=O)O)NC(=O)[C@@H](CCC(=O)O)NC(=O)[C@@H](CCC(=O)O)NC(=O)[C@@H](CNC(=O)c1ccc([Si](F)(C(C)(C)C)C(C)(C)C)cc1)NC(=O)CC[C@H](C(=O)O)N1CCN(CC(=O)O)CCN(CC(=O)O)CCN(CC(=O)O)CC1)C(=O)N[C@@H](CC(=O)O)C(=O)N[C@@H](Cc1ccccc1)C(N)=O [[nat/177Lu]Lu-(R)-DOTAGA-rhCCK-7, metal not drawn] (X1-[dDap](Benzoyl(4-SiFtBu2))[dE][dE][dE][dE][dE][dE]AYGW[Nle]DF-NH2) | -2.63 ± 0.08
7 | CCCC[C@H](NC(=O)[C@H](Cc1c[nH]c2ccccc12)NC(=O)CNC(=O)[C@H](Cc1ccc(O)cc1)NC(=O)[C@H](C)NC(=O)CC[C@@H](NC(=O)CC[C@@H](NC(=O)CC[C@@H](NC(=O)[C@@H](CNC(=O)c1ccc([Si](F)(C(C)(C)C)C(C)(C)C)cc1)NC(=O)CC[C@@H](NC(=O)CC[C@@H](NC(=O)CC[C@@H](NC(=O)CC[C@H](C(=O)O)N1CCN(CC(=O)O)CCN(CC(=O)O)CCN(CC(=O)O)CC1)C(=O)O)C(=O)O)C(=O)O)C(=O)O)C(=O)O)C(=O)O)C(=O)N[C@@H](CC(=O)O)C(=O)N[C@@H](Cc1ccccc1)C(N)=O [[nat/177Lu]Lu-(R)-DOTAGA-rhCCK-13, metal not drawn] ({X1-d(γGlu)-d(γGlu)-d(γGlu)}-[dDap](Benzoyl(4-SiFtBu2))[d(γGlu)][d(γGlu)][d(γGlu)]AYGW[Nle]DF-NH2) | -2.57 ± 0.06
8 | CCCC[C@H](NC(=O)[C@H](Cc1c[nH]c2ccccc12)NC(=O)CNC(=O)[C@H](Cc1ccc(O)cc1)NC(=O)[C@H](C)NC(=O)[C@@H](CCC(=O)O)NC(=O)[C@@H](CNC(=O)c1ccc([Si](F)(C(C)(C)C)C(C)(C)C)cc1)NC(=O)[C@@H](CCC(=O)O)NC(=O)[C@@H](CCC(=O)O)NC(=O)[C@@H](CCC(=O)O)NC(=O)[C@@H](CCC(=O)O)NC(=O)[C@@H](CCC(=O)O)NC(=O)CC[C@H](C(=O)O)N1CCN(CC(=O)O)CCN(CC(=O)O)CCN(CC(=O)O)CC1)C(=O)N[C@@H](CC(=O)O)C(=O)N[C@@H](Cc1ccccc1)C(N)=O [[nat/177Lu]Lu-(R)-DOTAGA-rhCCK-2, metal not drawn] (X1-[dE][dE][dE][dE][dE][dDap](Benzoyl(4-SiFtBu2))[dE]AYGW[Nle]DF-NH2) | -1.95 ± 0.09
